From ChEMBL document CHEMBL1909046, “DrugMatrix in vitro pharmacology data”

Tests used:
[1] = target: T1, Polyunsaturated fatty acid lipoxygenase ALOX15 (Oryctolagus cuniculus, UniProt P12530); assay: biochemical; type: tissue-based, Reticulocytes; details: reticulocytes;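 note: inhibition of 15-lipoxygenase enzyme activity measured with linoleic acid as the substrate; in other assays of this panel Not Active means under 50% inhibition at 10 µM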
T1 sequence (P12530 whole entry): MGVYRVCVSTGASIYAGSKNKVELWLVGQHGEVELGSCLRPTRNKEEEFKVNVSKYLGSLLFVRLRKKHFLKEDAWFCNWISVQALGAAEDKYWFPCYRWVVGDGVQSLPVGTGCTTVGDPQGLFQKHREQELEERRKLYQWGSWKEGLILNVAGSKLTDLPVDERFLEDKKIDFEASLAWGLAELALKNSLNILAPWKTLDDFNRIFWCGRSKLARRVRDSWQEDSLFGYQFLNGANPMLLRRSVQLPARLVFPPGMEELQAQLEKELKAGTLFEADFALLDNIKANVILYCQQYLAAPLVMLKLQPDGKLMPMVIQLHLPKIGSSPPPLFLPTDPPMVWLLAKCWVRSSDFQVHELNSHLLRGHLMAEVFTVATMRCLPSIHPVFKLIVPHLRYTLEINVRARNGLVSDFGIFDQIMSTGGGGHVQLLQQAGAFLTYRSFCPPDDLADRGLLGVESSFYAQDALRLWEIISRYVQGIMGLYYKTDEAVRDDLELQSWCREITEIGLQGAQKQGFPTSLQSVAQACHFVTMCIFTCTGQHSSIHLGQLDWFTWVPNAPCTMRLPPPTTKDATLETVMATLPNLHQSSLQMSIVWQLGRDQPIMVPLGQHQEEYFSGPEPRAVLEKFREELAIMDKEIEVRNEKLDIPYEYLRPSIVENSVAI

[2] = DRUGMATRIX: Tumor Necrosis Factor (TNF), Non-Selective radioligand binding (ligand: [125I] TNF-alpha); type: cell membranes, Membrane; details: u-937; Not Active = under 50% inhibition at 10 µM
Substance-P receptor = Substance-P receptor (Homo sapiens, UniProt P25103); type: cell membranes, Membrane; details: cho; note: in other assays of this panel Not Active means under 50% inhibition at 10 µM
[3] = target: 5-hydroxytryptamine receptor 1B (Rattus norvegicus, UniProt P28564); type: cell membranes, Wistar, Cerebral cortex, Membrane; note: in other assays of this panel Not Active means under 50% inhibition at 10 µM
Cytochrome P450 2D6 = Cytochrome P450 2D6 (Homo sapiens, UniProt P10635); details: bti-tn-5b1-4; note: in other assays of this panel Not Active means under 50% inhibition at 10 µM
[4] = DRUGMATRIX: Glutamate, NMDA, Phencyclidine radioligand binding (ligand: [3H] TCP); type: cell membranes, Rattus norvegicus, Wistar, Cerebral cortex, Membrane; details: Not Active = under 50% inhibition at 10 µM
[5] = target: Mitogen-activated protein kinase 14 (Homo sapiens, UniProt Q16539); design: species or system Escherichia coli
Mitogen-activated protein kinase 14, sequence (Q16539 whole entry): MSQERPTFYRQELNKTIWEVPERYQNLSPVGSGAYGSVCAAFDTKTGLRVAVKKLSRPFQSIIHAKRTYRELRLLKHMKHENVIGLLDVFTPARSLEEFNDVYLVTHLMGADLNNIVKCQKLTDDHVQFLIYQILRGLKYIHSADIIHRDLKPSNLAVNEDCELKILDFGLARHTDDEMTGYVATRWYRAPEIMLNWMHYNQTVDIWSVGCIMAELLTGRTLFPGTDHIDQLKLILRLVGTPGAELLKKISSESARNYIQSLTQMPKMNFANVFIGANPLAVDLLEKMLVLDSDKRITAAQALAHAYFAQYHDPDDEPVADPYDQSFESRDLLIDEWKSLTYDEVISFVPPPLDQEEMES

Cytochrome P450 2D6, sequence (P10635 whole entry): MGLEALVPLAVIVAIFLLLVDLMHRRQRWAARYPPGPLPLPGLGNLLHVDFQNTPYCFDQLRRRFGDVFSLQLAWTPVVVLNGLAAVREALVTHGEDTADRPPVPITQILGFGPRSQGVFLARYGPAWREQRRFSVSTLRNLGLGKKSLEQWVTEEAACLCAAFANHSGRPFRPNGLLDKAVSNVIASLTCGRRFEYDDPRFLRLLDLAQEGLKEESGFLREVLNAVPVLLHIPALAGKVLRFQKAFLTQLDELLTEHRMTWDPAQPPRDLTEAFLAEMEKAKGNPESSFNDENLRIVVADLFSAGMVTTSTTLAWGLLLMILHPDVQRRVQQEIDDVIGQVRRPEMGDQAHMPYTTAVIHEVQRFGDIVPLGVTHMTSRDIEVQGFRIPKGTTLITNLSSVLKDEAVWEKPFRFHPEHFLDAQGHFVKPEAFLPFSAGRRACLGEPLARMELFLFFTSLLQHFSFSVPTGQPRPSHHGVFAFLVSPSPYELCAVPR
5-hydroxytryptamine receptor 1B, sequence (P28564 whole entry): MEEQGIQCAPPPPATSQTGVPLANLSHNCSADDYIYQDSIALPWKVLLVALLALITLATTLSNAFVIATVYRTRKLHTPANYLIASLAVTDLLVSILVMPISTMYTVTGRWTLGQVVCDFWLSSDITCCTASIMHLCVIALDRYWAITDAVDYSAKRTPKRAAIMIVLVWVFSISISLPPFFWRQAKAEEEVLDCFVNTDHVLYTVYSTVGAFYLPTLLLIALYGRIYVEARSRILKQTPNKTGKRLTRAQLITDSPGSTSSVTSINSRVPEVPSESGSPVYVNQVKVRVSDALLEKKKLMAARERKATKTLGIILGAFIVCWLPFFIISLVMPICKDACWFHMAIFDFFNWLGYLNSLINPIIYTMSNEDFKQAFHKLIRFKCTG
Substance-P receptor, sequence (P25103 whole entry): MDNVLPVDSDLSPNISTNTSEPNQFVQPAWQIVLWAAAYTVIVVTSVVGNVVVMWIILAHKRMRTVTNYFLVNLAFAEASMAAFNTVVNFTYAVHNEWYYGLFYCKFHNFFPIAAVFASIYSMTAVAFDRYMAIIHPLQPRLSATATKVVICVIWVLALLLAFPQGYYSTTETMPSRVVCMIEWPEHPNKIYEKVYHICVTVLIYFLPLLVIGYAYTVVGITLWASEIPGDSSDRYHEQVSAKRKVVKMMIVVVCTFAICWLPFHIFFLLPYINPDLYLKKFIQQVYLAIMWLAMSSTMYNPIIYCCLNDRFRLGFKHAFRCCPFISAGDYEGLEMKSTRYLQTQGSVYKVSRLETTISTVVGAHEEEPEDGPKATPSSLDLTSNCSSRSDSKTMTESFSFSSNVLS

| Compound | IC50 [1] | IC50 [2] | Ki [2] | IC50 (Substance-P receptor) | IC50 [3] | IC50 (Cytochrome P450 2D6) | Ki (Cytochrome P450 2D6) | IC50 [4] | Ki [4] | IC50 [5] | IC50 ([5]; read-out: IC50) [nM] | Ki [1] | IC50 ([3]; read-out: IC50) [nM] | Ki ([3]; read-out: Ki) [nM] |
| --- | --- | --- | --- | --- | --- | --- | --- | --- | --- | --- | --- | --- | --- | --- |
| Nn1nnc2ccccc21 | Not Active | Not Active | Not Active | Not Active | Not Active | Not Active | Not Active | Not Active | Not Active | Not Active |  |  |  |  |
| CC[C@]1(O)CC[C@H]2[C@@H]3CCC4=CCCC[C@@H]4[C@H]3CC[C@@]21C | Not Active | Not Active | Not Active | Not Active | Not Active | Not Active | Not Active | Not Active | Not Active | Not Active |  |  |  |  |
| N[C@@H](Cc1ccc(F)cc1)C(=O)O | Not Active | Not Active | Not Active | Not Active | Not Active |  |  | Not Active | Not Active | Not Active |  |  |  |  |
| CCOC(=O)[C@H](CCc1ccccc1)N[C@@H](C)C(=O)N1Cc2ccccc2C[C@H]1C(=O)O | Not Active | Not Active | Not Active | Not Active | Not Active | Not Active | Not Active | Not Active | Not Active | Not Active |  |  |  |  |
| O=C(c1ccccc1Cl)N1CCC(Cc2ccccc2)CC1 | Not Active | Not Active | Not Active | Not Active | Not Active | Not Active | Not Active | Not Active | Not Active |  | 833 |  |  |  |
| CCOC(=O)[C@H](CCc1ccccc1)N[C@@H](C)C(=O)N1CCC[C@H]1C(=O)O | Not Active | Not Active | Not Active | Not Active | Not Active | Not Active | Not Active | Not Active | Not Active | Not Active |  |  |  |  |
| Clc1cc2c(cc1Cl)Oc1cc(Cl)c(Cl)cc1O2 [2,3,7,8-TETRACHLORODIBENZO-P-DIOXIN] | Not Active | Not Active | Not Active | Not Active | Not Active | Not Active | Not Active | Not Active | Not Active | Not Active |  |  |  |  |
| C=C1/C(=C\C=C2/CCC[C@]3(C)[C@@H]([C@H](C)CCCC(C)C)CC[C@@H]23)C[C@@H](O)C[C@@H]1O [ALFACALCIDOL] | Not Active | Not Active | Not Active | Not Active | Not Active | Not Active | Not Active | Not Active | Not Active | Not Active |  |  |  |  |
| CCCCCC[C@H]1C(=O)O[C@H](C)[C@H](NC(=O)c2cccc(NC=O)c2O)C(=O)O[C@@H](C)[C@@H]1OC(=O)CC(C)C [ANTIMYCIN A] | Not Active | Not Active | Not Active | Not Active | Not Active | Not Active | Not Active | Not Active | Not Active | Not Active |  |  |  |  |
| C[C@@H]1CC[C@H]2[C@@H](C)C(=O)O[C@@H]3O[C@@]4(C)CC[C@@H]1[C@]32OO4 [ARTEMISININ] | Not Active | Not Active | Not Active | Not Active | Not Active |  |  | Not Active | Not Active | Not Active |  |  |  |  |
| CO[C@H]1[C@@H](O)[C@H](N)[C@@H](O[C@H]2O[C@H]([C@H](C)N)CC[C@H]2N)[C@H](O)[C@@H]1N(C)C(=O)CN [ASTROMICIN] | Not Active | Not Active | Not Active | Not Active | Not Active | Not Active | Not Active | Not Active | Not Active | Not Active |  |  |  |  |
| [N-]=[N+]=CC(=O)OC[C@H](N)C(=O)O [AZASERINE] | Not Active | Not Active | Not Active | Not Active | Not Active | Not Active | Not Active | Not Active | Not Active | Not Active |  |  |  |  |
| CC[C@H]1OC(=O)[C@H](C)[C@@H](O[C@H]2C[C@@](C)(OC)[C@@H](O)[C@H](C)O2)[C@H](C)[C@@H](O[C@@H]2O[C@H](C)C[C@H](N(C)C)[C@H]2O)[C@](C)(O)C[C@@H](C)CN(C)[C@H](C)[C@@H](O)[C@]1(C)O [AZITHROMYCIN] | Not Active | Not Active | Not Active | Not Active | Not Active | Not Active | Not Active | Not Active | Not Active | Not Active |  |  |  |  |
| CC(C)(C)c1ccc(S(=O)(=O)/C=C/C#N)cc1 [BAY-11-7085] | Not Active | Not Active | Not Active | Not Active | Not Active | Not Active | Not Active | Not Active | Not Active | Not Active |  |  |  |  |
| CCc1oc2ccccc2c1C(=O)c1cc(Br)c(O)c(Br)c1 [BENZBROMARONE] |  | Not Active | Not Active | Not Active | Not Active | Not Active | Not Active | Not Active | Not Active |  | 1240 | Not Active |  |  |
| O=c1cc(-c2ccccc2)oc2ccc3ccccc3c12 [BETA-NAPHTHOFLAVONE] | Not Active | Not Active | Not Active | Not Active | Not Active | Not Active | Not Active | Not Active | Not Active | Not Active |  |  |  |  |
| CC(C)C[C@H]1C(=O)N2CCC[C@H]2[C@]2(O)O[C@](NC(=O)[C@@H]3C=C4c5cccc6[nH]c(Br)c(c56)C[C@H]4N(C)C3)(C(C)C)C(=O)N12 [BROMOCRIPTINE] | Not Active | Not Active | Not Active | Not Active |  | Not Active | Not Active | Not Active | Not Active | Not Active |  |  | 103 | 47 |
| CS(=O)(=O)OCCCCOS(C)(=O)=O [BUSULFAN] | Not Active | Not Active | Not Active | Not Active | Not Active | Not Active | Not Active | Not Active | Not Active | Not Active |  |  |  |  |
| CCC[C@@H]1C[C@@H](C(=O)N[C@@H]([C@H]2O[C@H](SC)[C@H](O)[C@@H](O)[C@H]2O)[C@H](C)Cl)N(C)C1 [CLINDAMYCIN] | Not Active | Not Active | Not Active | Not Active | Not Active |  |  | Not Active | Not Active | Not Active |  |  |  |  |
| CN1C(=O)CN=C(c2ccccc2)c2cc(Cl)ccc21 [DIAZEPAM] | Not Active | Not Active | Not Active | Not Active | Not Active |  |  | Not Active | Not Active | Not Active |  |  |  |  |
| CCOC(=O)C1=C(C)NC(C)=C(C(=O)OC)C1c1cccc(Cl)c1Cl (stereo not given) [FELODIPINE] | Not Active | Not Active | Not Active | Not Active | Not Active |  |  | Not Active | Not Active | Not Active |  |  |  |  |
| Cc1cn[nH]c1 [FOMEPIZOLE] | Not Active | Not Active | Not Active | Not Active | Not Active |  |  | Not Active | Not Active | Not Active |  |  |  |  |
| Cc1cnc(C(=O)NCCc2ccc(S(=O)(=O)NC(=O)NC3CCCCC3)cc2)cn1 [GLIPIZIDE] | Not Active | Not Active | Not Active | Not Active | Not Active |  |  | Not Active | Not Active |  |  |  |  |  |
| COc1ccccc1OCC(O)CO (stereo not given) [GUAIFENESIN] | Not Active | Not Active | Not Active | Not Active | Not Active |  |  | Not Active | Not Active | Not Active |  |  |  |  |
| C/C=C\c1ccc(O)c(OC)c1 [ISOEUGENOL] | Not Active | Not Active | Not Active | Not Active | Not Active |  |  | Not Active | Not Active | Not Active |  |  |  |  |
| OCCN1CCN(CCCN2c3ccccc3Sc3ccc(Cl)cc32)CC1 [PERPHENAZINE] | Not Active | Not Active | Not Active | Not Active | Not Active |  |  | Not Active | Not Active | Not Active |  |  |  |  |
